Test results from patent US8063067B2, “Hexenoic acid derivatives, processes for the preparation thereof, pharmaceutical compositions comprising them, and therapeutic applications thereof” (Merck Patent GmbH, priority 2004, dated 2011).
Marks after values point to notes of the source that are not given here. Blank lines part the entries; values can stand above or below the molecule they belong to.

Legend:
[1] = target: T1, chimeric protein PPARα-Gal4 (Homo sapiens, UniProt Q07869); test: PPARα-Gal4 chimera luciferase reporter transactivation in co-transfected CV-1 cells; assay type: cell-based; conditions: CV-1 cells (monkey kidney cells), 18 hours contact, fold relative to control cells without product
T1 construct: expressed in transfected cells; host or cells: CV-1 cells (monkey kidney cells)
T1 sequence (Q07869 239-466 limits assumed): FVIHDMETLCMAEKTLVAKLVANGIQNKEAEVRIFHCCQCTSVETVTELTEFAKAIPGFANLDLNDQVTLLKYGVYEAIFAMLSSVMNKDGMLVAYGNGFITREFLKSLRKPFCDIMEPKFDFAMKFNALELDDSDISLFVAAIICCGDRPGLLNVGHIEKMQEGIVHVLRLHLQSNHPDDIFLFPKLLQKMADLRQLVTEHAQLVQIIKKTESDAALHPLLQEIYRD
Description: (§1) The measurement of the PPAR activation was performed according to a technique described by Lehmann et al. (J. Biol. Chem., 270, (1995), 12953-12956).
(§2) CV-1 cells (monkey kidney cells) are co-transfected with an expression vector for the chimeric proteins PPARα-Gal4 or PPARγ-Gal4 and with a “reporter” plasmid that allows the expression of the luciferase gene placed under the control of a promoter comprising Gal4 response elements.
(§3) The cells are plated into 96-well microplates and co-transfected using a commercial reagent with the reporter plasmid (pG5-tk-pGL3) and the expression vector for the chimeric protein (PPARα-Gal4 or PPARγ-Gal4). After incubating for 4 hours, whole culture medium (comprising 10% foetal calf serum) is added to the wells. After 24 hours, the medium is removed and replaced with whole medium comprising the test products (50 μM, 25 μM and 12.5 μM final). The products are left in contact with the cells for 18 hours. The cells are then lysed and the luciferase activity is measured using a luminometer. A PPAR activation factor can then be calculated by means of activation of the expression of the reporter gene induced by the product (relative to the control cells that have not received any product).

Gal4 alone = target: T2, Gal4 alone (Saccharomyces cerevisiae, UniProt P04386); test: Luciferase reporter control with vector expressing Gal4 alone (no PPAR ligand binding domain); assay type: cell-based; conditions: CV-1 cells
T2 construct: expressed in transfected cells; host or cells: CV-1 cells (monkey kidney cells)
T2 sequence (P04386 whole entry, the tested form may be a part): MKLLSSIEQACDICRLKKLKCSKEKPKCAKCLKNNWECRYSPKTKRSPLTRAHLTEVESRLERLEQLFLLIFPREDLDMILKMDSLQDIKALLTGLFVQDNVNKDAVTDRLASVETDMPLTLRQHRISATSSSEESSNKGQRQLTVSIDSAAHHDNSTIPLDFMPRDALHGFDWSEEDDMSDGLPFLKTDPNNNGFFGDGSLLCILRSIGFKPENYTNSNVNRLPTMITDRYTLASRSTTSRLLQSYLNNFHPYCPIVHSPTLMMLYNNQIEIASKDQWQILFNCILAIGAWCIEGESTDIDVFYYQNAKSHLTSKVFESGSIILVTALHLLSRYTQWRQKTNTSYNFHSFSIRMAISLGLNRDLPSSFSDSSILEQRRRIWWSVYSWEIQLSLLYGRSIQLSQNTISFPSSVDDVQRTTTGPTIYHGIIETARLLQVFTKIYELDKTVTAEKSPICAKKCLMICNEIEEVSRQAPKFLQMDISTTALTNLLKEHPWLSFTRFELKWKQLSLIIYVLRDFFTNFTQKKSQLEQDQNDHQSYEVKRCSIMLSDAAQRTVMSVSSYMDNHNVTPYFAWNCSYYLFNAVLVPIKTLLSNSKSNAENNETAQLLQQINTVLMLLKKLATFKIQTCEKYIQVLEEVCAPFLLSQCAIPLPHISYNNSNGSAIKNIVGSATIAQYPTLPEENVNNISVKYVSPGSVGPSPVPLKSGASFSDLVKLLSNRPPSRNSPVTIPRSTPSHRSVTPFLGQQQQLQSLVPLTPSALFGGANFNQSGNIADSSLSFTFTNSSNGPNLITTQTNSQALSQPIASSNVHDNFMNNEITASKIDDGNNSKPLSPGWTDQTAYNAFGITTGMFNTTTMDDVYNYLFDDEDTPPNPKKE
Description: CV-1 cells (monkey kidney cells) are co-transfected with an expression vector for the chimeric proteins PPARα-Gal4 or PPARγ-Gal4 and with a “reporter” plasmid that allows the expression of the luciferase gene placed under the control of a promoter comprising Gal4 response elements. The cells are plated into 96-well microplates and co-transfected using a commercial reagent with the reporter plasmid (pG5-tk-pGL3) and the expression vector for the chimeric protein (PPARα-Gal4 or PPARγ-Gal4). After incubating for 4 hours, whole culture medium (comprising 10% foetal calf serum) is added to the wells. After 24 hours, the medium is removed and replaced with whole medium comprising the test products (50 μM, 25 μM and 12.5 μM final). The products are left in contact with the cells for 18 hours. The cells are then lysed and the luciferase activity is measured using a luminometer. A PPAR activation factor can then be calculated by means of activation of the expression of the reporter gene induced by the product (relative to the control cells that have not received any product). […] In the absence of the binding domain for the PPAR α or γ ligand (vector expressing Gal4 alone), the luciferase activity measured in the presence of this product is zero.

[2] = target: T3, chimeric protein PPARγ-Gal4 (Homo sapiens, UniProt P37231); test: PPARγ-Gal4 chimera luciferase reporter transactivation in co-transfected CV-1 cells; assay type: cell-based; conditions: CV-1 cells (monkey kidney cells), 18 hours contact, fold relative to control cells without product
T3 construct: expressed in transfected cells; host or cells: CV-1 cells (monkey kidney cells)
T3 sequence (P37231 238-503 limits assumed): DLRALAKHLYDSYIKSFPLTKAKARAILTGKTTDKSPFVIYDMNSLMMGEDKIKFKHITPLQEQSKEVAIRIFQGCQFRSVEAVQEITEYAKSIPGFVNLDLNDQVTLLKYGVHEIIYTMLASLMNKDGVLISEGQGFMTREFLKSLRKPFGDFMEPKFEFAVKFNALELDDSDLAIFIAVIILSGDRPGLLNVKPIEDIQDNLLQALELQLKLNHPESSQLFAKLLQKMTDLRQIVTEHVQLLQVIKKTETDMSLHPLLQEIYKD
Description: as §1, §2, §3

db/db mice = test: Antidiabetic and hypolipidaemiant activity, oral, db/db mice; assay type: in vivo; conditions: oral 100 mg/kg/day
Description: The antidiabetic and hypolipidaemiant activity of the compounds was determined orally on db/db mice
17-week-old db/db mice are treated orally for 15 days with the compound of Example 2 (100 mg/kg/day). Each group studied comprises seven animals. After treatment for 15 days, retro-orbital samples are taken under mild anaesthesia and after fasting for four hours.
The following parameters were measured:
Assay of the glycaemia (glucose oxidase) and of the lipid parameters on the sera at D15 (COBAS): triglycerides, total cholesterol (CHOL), HDL cholesterol (HDL-C) and free fatty acids (FFA) (BioMérieux and Waco Chemicals assay kit).
The measurements reported represent mean values±standard error.

[3] = 15 days, p < 0.05 versus control
[4] = serum at D15, mean ± standard error

SMILES: O=C(O)C(CCC1=CCCCC1)Oc1ccc(C(F)(F)F)cc1 (stereo not shown) [Example 2, 4-cyclohex-1-enyl-2-[4-(trifluoromethyl)phenoxy]butanoic acid]
PPAR activation factor, Chimer α ([1]; 12.5 μM): 3.6
PPAR activation factor, Chimer α ([1]; 25 μM): 17.2
PPAR activation factor, Chimer α ([1]; 50 μM): 24.9
luciferase activity in the absence of the binding domain for the PPAR α or γ ligand (Gal4 alone): zero
melting point: 109 to 111 °C
PPAR activation factor, Chimer γ ([2]; 12.5 μM): 2.2
PPAR activation factor, Chimer γ ([2]; 25 μM): 5.2
PPAR activation factor, Chimer γ ([2]; 50 μM): 9.3
Glycaemia (db/db mice; 15 days, fasted four hours, mean ± standard error): 23.23 ± 5.43 mM
CHOL, % var. (percentage of variation versus control) (db/db mice; 15 days, not significant): +28% ns
FFA, % var. (percentage of variation versus control) (db/db mice; 15 days, p < 0.01 versus control): −34% **
Glycaemia, % var. (percentage of variation versus control) (db/db mice; [3]): −26% *
HDL-C, % var. (percentage of variation versus control) (db/db mice; [3]): +21% *
Triglycerides, % var. (percentage of variation versus control) (db/db mice; [3]): −55% *
CHOL (total cholesterol) (db/db mice; [4]): 6.04 ± 0.61 mM
FFA (free fatty acids) (db/db mice; [4]): 0.48 ± 0.12 mM
HDL-C (db/db mice; [4]): 4.26 ± 0.61 mM
Triglycerides (db/db mice; [4]): 1.05 ± 0.29 mM

SMILES: O=C(O)C(CCC1=CCCCC1)Oc1ccc2oc3ccccc3c2c1 (stereo not shown) [Example 10]
melting point: 142 to 144 °C

SMILES: O=C(O)C(CCC1=CCCC1)Oc1ccc2oc3ccccc3c2c1 (stereo not shown) [Example 11]
melting point: 140 to 142 °C

SMILES: O=C(O)C(CCC1=CCCCC1)Oc1ccc(Cl)cc1 (stereo not shown) [Example 13]
PPAR activation factor, Chimer α ([1]; 12.5 μM): 6
PPAR activation factor, Chimer α ([1]; 25 μM): 4.8
PPAR activation factor, Chimer α ([1]; 50 μM): 12.5
PPAR activation factor, Chimer γ ([2]; 12.5 μM): 7.2
PPAR activation factor, Chimer γ ([2]; 25 μM): 5.3
PPAR activation factor, Chimer γ ([2]; 50 μM): 8.5

SMILES: O=C(O)C(CCC1=CCCCC1)Oc1ccc(-c2cc3ccccc3s2)cc1 (stereo not shown) [Example 18]
melting point: 171 to 174 °C

SMILES: O=C(O)C(CCC1=CCCCC1)Oc1ccc(-c2ccc(F)cc2)cc1 (stereo not shown) [Example 19]
melting point: 156 to 158 °C

SMILES: C=CCCC(Oc1ccc(C(F)(F)F)cc1)C(=O)O (stereo not shown) [Example 86]
melting point: 70 °C

SMILES: C=CCCC(Oc1ccc(Oc2ccccc2)cc1)C(=O)O (stereo not shown) [Example 87]
melting point: 61 °C

SMILES: C=CCCC(Oc1cccc(OCc2ccc3ccccc3n2)c1)C(=O)O (stereo not shown) [Example 88]
melting point: 125 °C

SMILES: C=CCCC(Oc1ccc(-c2csc(C)n2)cc1)C(=O)O (stereo not shown) [Example 89]
melting point: 120 °C

SMILES: C=CCCC(Oc1ccc(-c2cc(C)ccc2C)cc1)C(=O)O (stereo not shown) [Example 90]
melting point: 95 to 98 °C

SMILES: C=CCCC(Oc1ccc(C(=O)/C=C/c2ccccc2)cc1)C(=O)O (stereo not shown) [Example 92]
melting point: 125 °C

SMILES: C=CCCC(Oc1ccc(-c2csc3ccccc23)cc1)C(=O)O (stereo not shown) [Example 93]
melting point: 98 °C

SMILES: C=CCCC(Oc1ccc(-c2cc3ccccc3s2)cc1)C(=O)O (stereo not shown) [Example 94]
melting point: 183 °C

SMILES: C=CCCC(Oc1ccc(-c2cccc(F)c2)cc1)C(=O)O (stereo not shown) [Example 97]
melting point: 110 °C

The remaining lines, values ahead:

melting point: 128 to 130 °C
SMILES: C=CCCC(Oc1ccc(-c2ccc(OC)cc2)cc1)C(=O)O (stereo not shown) [Example 8]

PPAR activation factor, Chimer α ([1]; 12.5 μM): 4.3
PPAR activation factor, Chimer α ([1]; 25 μM): 13.1
PPAR activation factor, Chimer α ([1]; 50 μM): 19.9
melting point: 97 °C
PPAR activation factor, Chimer γ ([2]; 12.5 μM): 1
PPAR activation factor, Chimer γ ([2]; 25 μM): 3.4
PPAR activation factor, Chimer γ ([2]; 50 μM): 15.6
SMILES: C=CCCC(Oc1ccc(-c2ccc(F)cc2)cc1)C(=O)O (stereo not shown) [Example 12]

melting point: 127 °C
SMILES: C=CCCC(Oc1ccc(-c2ccc(Cl)cc2)cc1)C(=O)O (stereo not shown) [Example 16]

melting point: 141 °C
SMILES: C=CCCC(Oc1ccc(C(=O)c2ccc(Cl)cc2)cc1)C(=O)O (stereo not shown) [Example 17]

melting point: 115 to 116 °C
SMILES: C=CCCC(Oc1ccc(-c2ccc(OC(F)(F)F)cc2)cc1)C(=O)O (stereo not shown) [Example 95]

melting point: 70 to 72 °C
SMILES: C=CCCC(Oc1ccc(-c2ccc(F)c(F)c2)cc1)C(=O)O (stereo not shown) [Example 98]
